In data set [1] the test system is SOD1 G93A mice. The experiment in a line: Neurological score analysis in SOD1 G93A (high copy) mouse model of ALS. The class given is in vivo. The text has this:
Survival in the mouse is copy dependent.
Controls animals were given water as vehicle.

In data set [2] the test system is SOD1 G93A mice. The experiment in a line: Survival analysis (Kaplan-Meier) in SOD1 G93A (high copy) mouse model of ALS.
Source text: (i) Model Description: The SOD1 G93A (high copy) mouse model was used as the model for ALS. This mouse model carries 25 copies of the human G93A SOD mutation and is driven by the endogenous promoter.
(ii) Murine FALS model: Heterozygous transgenic mice carrying the human SOD-1 (G93A) gene were obtained from Jackson Laboratory (Bar Harbor, Me., USA).
(iv) Methods: Forty (n=40) SOD1 G93A high copy mice obtained from Jackson Laboratory (Bar Harbor, Me.) were separated into two groups of twenty (n=20) with an equal number of males (n=10) and females (n=10) in each group. The groups were also litter matched to reduce group variation. Male animals were singly housed and females were group housed to conserve space. […] When animals had difficulty in moving and taking care of themselves chow and water were replaced with food pellets in bedding and Jell-O for water. (v) Pharmacological Agent Delivery: All pharmacological agents were administered to SOD1 G93A mice.
Controls animals were given water as vehicle. All treatments are performed 7 days per week and treatment was initiated at day 60 of life. […] When a neurological score of 2 is attained, the animals are no longer capable of drinking themselves due to paralysis. […] Controls were given water as vehicle until a neurological score of 2 at which point they were injected with saline as vehicle.
• 0=Normal reflex on the hind limbs (animal will splay its hind limbs when lifted by its tail). • 1=Abnormal reflex of hind limbs (lack of splaying of hind limbs when animal is lifted by the tail). • 2=Abnormal reflex of limbs and evidence of paralysis. • 3=Lack of reflex and complete paralysis. • 4=Inability to right themselves when placed on the sides in 30 seconds or found dead. The animals are sacrificed at this stage if alive.
Data set [3] deals with SOD1 G93A mice. The note with it: mouse, in vivo, ip, 250 mg/kg/day.
Data set [4] deals with patients with advanced non-small cell lung cancer. The settings on record: Phase I, advanced non-small cell lung cancer (Hahm et al. 2002); cited from earlier work.
Setting [5] is: discontinuous dosing 3200 mg/Kg/day in drinking water, 21 days on / 7 days off.
The mark [6] stands for this setting: female mice, IP 24 mg/kg/day twice daily till death, FIG. 12.

`NCCCC(N)(C(=O)O)C(F)F` (racemic) [DFMO, 2-(Difuoromethyl)-DL-ornithine]: the “effect on neurological score” value was “protective” in the data set with SOD1 G93A mice [1] (combined male and female, continuous dosing 3200 mg/Kg/day, FIGS. 5); “protective” in the data set with SOD1 G93A mice [1] (female mice, discontinuous dosing 3200 mg/Kg/day, during the drug delivery period); “protective” in the data set with SOD1 G93A mice [1] (female, continuous dosing 3200 mg/Kg/day, FIG. 9); “protective” in the data set with SOD1 G93A mice [1] (male, continuous dosing 3200 mg/Kg/day, FIG. 7). Besides, the onset of disease entry in the data set on SOD1 G93A mice [2] (continuous dosing 3200 mg/Kg/day in drinking water, no drug holiday) is listed as “delays the onset of disease”; in the data set with SOD1 G93A mice [2] (setting [5]) it was “delays the onset of disease”. For the same molecule, the life span result with SOD1 G93A mice [2] (continuous dosing 3200 mg/Kg/day in drinking water, no drug holiday, combined, male and female, FIGS. 4, 6 and 8) is reported as “extended the life span”. For the same molecule, the survival entry in the data set with SOD1 G93A mice [2] (setting [5]) is listed as “extends the survival”. For the same molecule, the “deaths of animals in the treatment group during the drug holiday or a few days immediately succeeding it” value with SOD1 G93A mice [2] (females, discontinuous dosing 3200 mg/Kg/day in drinking water, 21 days then 7 day drug holiday, FIG. 2) was found to be 70%. The “trend in male mice” value with SOD1 G93A mice [2] (ongoing IP injection study, 3200 mg/kg, male mice) is “positive male trend”.

For `NC(=O)NO` [hydroxyurea], in the data set on SOD1 G93A mice [1] (female mice, IP 250 mg/Kg/day once daily, day 50 until day 110, FIG. 11), the “effect on neurological score” value is on record as “protective”. Besides, the “onset of ALS disease” value with SOD1 G93A mice [2] (IP 250 mg/Kg/day once daily, day 50 until day 110) is “delays the onset of ALS disease”. The life span entry with SOD1 G93A mice [2] (female mice, IP 250 mg/Kg/day once daily, day 50 until day 110, FIG. 10) is “extended the life span”. Moreover, the “toxicity leading to stop of treatment” value in the data set with SOD1 G93A mice [3] is recorded as “discontinued after day 110 due to toxicity”.

Turning to `CCNCCCNCCCNCCCNCC` [DENSPM, N(1),N(11)-diethylnorspermine], the “effect on neurological score” value with SOD1 G93A mice [1] (female mice, IP 24 mg/kg/day twice daily till death, FIG. 13) is reported as “protective”. Besides, the toxicity in patients result in data set [4] was “minimal toxicity”. In the data set with SOD1 G93A mice [2] (setting [6]), the onset of disease result is “delays the onset of disease” and the survival result was “extends the survival”.
